According to ChEMBL document CHEMBL1201862, “PubChem BioAssay data set” (2004):
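The compound was tested at five concentrations on cells cultured in 96-well plates, with a 48-hour exposure period. Here, GI50 denotes the concentration required for 50% inhibition of growth.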 The source made the active and inactive calls. No stated cut-off is given here; in the data, active = GI50 up to about 1.1 µM and inactive = higher.

What was measured:
Experiment in all cases: NCI anticancer screen, dose series, 48 h
[1] = system: A549
[2] = system: SF-295
[3] = system: NCI-H226
[4] = system: NCI-H23
[5] = system: KM12
[6] = system: SK-MEL-2
[7] = system: SN12C
[8] = system: SK-OV-3
[9] = system: OVCAR-8
[10] = system: HOP-62
[11] = system: HOP-92
[12] = system: OVCAR-4
[13] = system: UACC-62
[14] = system: HCT-15

Row | Structure (SMILES) | GI50 [1] | GI50 [2] | GI50 [3] | GI50 [4] | GI50 [5] | GI50 [6] | GI50 [7] | GI50 [8] | GI50 [9] | GI50 [10] | GI50 [11] | GI50 [12] | GI50 [13] | GI50 [14] [µM]
1 | CC1=C2CCCC2=C/C(=N/Nc2ccc([N+](=O)[O-])cc2[N+](=O)[O-])CC1 | > 100 µM (inactive) | > 100 µM (inactive) | > 100 µM (inactive) | > 100 µM (inactive) | > 100 µM (inactive) | 27.9 µM (inactive) | > 100 µM (inactive) | > 100 µM (inactive) | > 100 µM (inactive) | > 100 µM (inactive) | > 100 µM (inactive) | > 100 µM (inactive) | > 100 µM (inactive) | –
2 | O=C(O)c1cc(-c2ccccc2O)nc2ccccc12 | > 100 µM (inactive) | > 100 µM (inactive) | – | > 100 µM (inactive) | > 100 µM (inactive) | > 100 µM (inactive) | > 100 µM (inactive) | > 100 µM (inactive) | > 100 µM (inactive) | > 100 µM (inactive) | – | > 100 µM (inactive) | > 100 µM (inactive) | > 100
3 | CC(=O)Nc1ccccc1[S+]([O-])c1ccccc1 (centres undefined) | > 100 µM (inactive) | > 100 µM (inactive) | > 100 µM (inactive) | > 100 µM (inactive) | > 100 µM (inactive) | > 100 µM (inactive) | > 100 µM (inactive) | 84.5 µM (inactive) | > 100 µM (inactive) | > 100 µM (inactive) | > 100 µM (inactive) | > 100 µM (inactive) | > 100 µM (inactive) | > 100
4 | CCOC(=O)C(=O)Nc1nc2c(OCC)cccc2s1 | > 100 µM (inactive) | > 100 µM (inactive) | > 100 µM (inactive) | > 100 µM (inactive) | > 100 µM (inactive) | > 100 µM (inactive) | > 100 µM (inactive) | > 100 µM (inactive) | > 100 µM (inactive) | > 100 µM (inactive) | > 100 µM (inactive) | > 100 µM (inactive) | > 100 µM (inactive) | > 100
5 | O=C(Nc1cccc(NC(=O)c2cc(=O)c3ccccc3o2)n1)c1cc(=O)c2ccccc2o1 | 53.6 µM (inactive) | – | – | 20.1 µM (inactive) | 17.9 µM (inactive) | > 100 µM (inactive) | – | > 100 µM (inactive) | > 100 µM (inactive) | 90.8 µM (inactive) | 17.3 µM (inactive) | 44.6 µM (inactive) | 6.75 µM (inactive) | 4.06
6 | Cc1ccc(S(=O)(=O)n2cc(/C=C/C#N)c(/C=C/C#N)c2)cc1 | 63.8 µM (inactive) | 55.5 µM (inactive) | – | 96.6 µM (inactive) | 48.4 µM (inactive) | 74.3 µM (inactive) | > 100 µM (inactive) | > 100 µM (inactive) | > 100 µM (inactive) | > 100 µM (inactive) | 24.8 µM (inactive) | 59.4 µM (inactive) | 48.9 µM (inactive) | 88.9
7 | C#CCN(C)C(=O)N(CC#C)N=O | > 100 µM (inactive) | > 100 µM (inactive) | – | > 100 µM (inactive) | > 100 µM (inactive) | > 100 µM (inactive) | > 100 µM (inactive) | > 100 µM (inactive) | > 100 µM (inactive) | > 100 µM (inactive) | > 100 µM (inactive) | > 100 µM (inactive) | > 100 µM (inactive) | > 100
8 | COc1ccc(CNc2nc3ccccc3nc2-c2cccs2)cc1OC | 16.2 µM (inactive) | 42.4 µM (inactive) | 68.5 µM (inactive) | 25.2 µM (inactive) | – | 63.7 µM (inactive) | 61.5 µM (inactive) | – | 34 µM (inactive) | > 100 µM (inactive) | 13.4 µM (inactive) | – | – | 34.8
9 | Cc1ccc(C(=O)NC(C)C)cc1/N=N/N(C)C | > 100 µM (inactive) | > 100 µM (inactive) | – | > 100 µM (inactive) | > 100 µM (inactive) | > 100 µM (inactive) | > 100 µM (inactive) | – | > 100 µM (inactive) | > 100 µM (inactive) | > 100 µM (inactive) | > 100 µM (inactive) | > 100 µM (inactive) | > 100
10 | CCOC(=O)CC1NC(=O)CS1 (centres undefined) | > 100 µM (inactive) | > 100 µM (inactive) | 12.6 µM (inactive) | > 100 µM (inactive) | > 100 µM (inactive) | – | 36.6 µM (inactive) | > 100 µM (inactive) | > 100 µM (inactive) | > 100 µM (inactive) | > 100 µM (inactive) | > 100 µM (inactive) | > 100 µM (inactive) | 20
11 | COc1ccccc1NC(=O)C1=C(C)NC(C)=C(C(=O)Nc2ccccc2OC)C1c1ccc(C2C(C(=O)Nc3ccccc3OC)=C(C)NC(C)=C2C(=O)Nc2ccccc2OC)cc1 | > 27.8 µM (inactive) | 1.53 µM (inactive) | 3.52 µM (inactive) | 2.39 µM (inactive) | 1.64 µM (inactive) | 2.08 µM (inactive) | 1.79 µM (inactive) | 13 µM (inactive) | 2.53 µM (inactive) | 6.35 µM (inactive) | 3.29 µM (inactive) | 3.94 µM (inactive) | 1.68 µM (inactive) | 2.72
